Experimental data reported in patent US9446039B2, “Aminoheteroaryl compounds as MTH1 inhibitors” (CEMM—FORSCHUNGSZENTRUM FÜR MOLEKULARE MEDIZIN GMBH, priority 2012, dated 2016).

Assays:
[1] = target: SW480 colon carcinoma cells lysate proteins (Homo sapiens, UniProt O00571); type: binding; conditions: PreyGene DDX3X
[2] = tested on: SW480 colon carcinoma cells lysate proteins; type: binding, human; conditions: PreyGene EIF3C, EIF3CL; SW480 cells
[3] = target: SW480 colon carcinoma cells lysate proteins (Homo sapiens, UniProt P30153); type: binding; conditions: PreyGene PPP2R1A
[4] = target: T1, SW480 colon carcinoma cells lysate proteins (Homo sapiens, UniProt Q13126); type: binding; conditions: PreyGene MTAP; SW480 cells
T1 sequence (Q13126 1-283): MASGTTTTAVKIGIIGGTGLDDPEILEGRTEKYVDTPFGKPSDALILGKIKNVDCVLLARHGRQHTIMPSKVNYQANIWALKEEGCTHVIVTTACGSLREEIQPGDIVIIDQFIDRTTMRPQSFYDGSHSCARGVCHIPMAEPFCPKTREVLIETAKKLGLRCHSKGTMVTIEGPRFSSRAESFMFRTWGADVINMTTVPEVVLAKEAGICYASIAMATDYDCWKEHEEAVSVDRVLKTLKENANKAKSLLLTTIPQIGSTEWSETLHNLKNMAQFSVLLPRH

[5] = target: SW480 colon carcinoma cells lysate proteins (Homo sapiens, UniProt Q13283); type: binding; conditions: PreyGene G3BP1; SW480 cells
[6] = target: T2, SW480 colon carcinoma cells lysate proteins (Homo sapiens, UniProt P40925); type: binding; conditions: PreyGene MDH1
T2 sequence (P40925 1-334): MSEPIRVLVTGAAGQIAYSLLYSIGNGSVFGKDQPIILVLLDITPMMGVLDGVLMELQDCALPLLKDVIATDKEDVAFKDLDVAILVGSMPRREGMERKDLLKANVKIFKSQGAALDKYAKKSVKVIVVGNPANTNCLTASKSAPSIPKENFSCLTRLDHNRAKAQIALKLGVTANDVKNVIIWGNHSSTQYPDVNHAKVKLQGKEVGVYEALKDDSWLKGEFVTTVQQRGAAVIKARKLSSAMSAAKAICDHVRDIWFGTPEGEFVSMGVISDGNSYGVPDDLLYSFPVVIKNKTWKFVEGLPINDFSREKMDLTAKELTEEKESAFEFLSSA

[7] = target: SW480 colon carcinoma cells lysate proteins (Homo sapiens, UniProt P53999); type: binding; conditions: PreyGene SUB1
[8] = target: SW480 colon carcinoma cells lysate proteins (Homo sapiens, UniProt P06744); type: binding; conditions: PreyGene GPI
[9] = target: SW480 colon carcinoma cells lysate proteins (Homo sapiens, UniProt P27695); type: binding; conditions: PreyGene APEX1
[10] = target: T3, SW480 colon carcinoma cells lysate proteins (Homo sapiens, UniProt P30041); type: binding; conditions: PreyGene PRDX6
T3 sequence (P30041 1-224): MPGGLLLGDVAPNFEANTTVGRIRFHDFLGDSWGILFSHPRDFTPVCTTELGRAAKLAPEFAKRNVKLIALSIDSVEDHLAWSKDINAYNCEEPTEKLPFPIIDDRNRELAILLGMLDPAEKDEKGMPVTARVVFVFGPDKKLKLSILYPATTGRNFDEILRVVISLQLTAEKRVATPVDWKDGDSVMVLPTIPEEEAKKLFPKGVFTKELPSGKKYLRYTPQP

[11] = target: T4, SW480 colon carcinoma cells lysate proteins (Homo sapiens, UniProt Q9Y2B0); type: binding; conditions: PreyGene CNPY2; SW480 cells
T4 sequence (Q9Y2B0 21-182): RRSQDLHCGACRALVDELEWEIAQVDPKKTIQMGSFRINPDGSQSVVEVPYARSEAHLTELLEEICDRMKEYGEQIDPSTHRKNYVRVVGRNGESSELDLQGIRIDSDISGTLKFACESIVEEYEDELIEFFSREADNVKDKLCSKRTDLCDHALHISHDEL

SW480 colon carcinoma cells lysate proteins (Homo sapiens, UniProt Q13283), sequence (Q13283 whole entry): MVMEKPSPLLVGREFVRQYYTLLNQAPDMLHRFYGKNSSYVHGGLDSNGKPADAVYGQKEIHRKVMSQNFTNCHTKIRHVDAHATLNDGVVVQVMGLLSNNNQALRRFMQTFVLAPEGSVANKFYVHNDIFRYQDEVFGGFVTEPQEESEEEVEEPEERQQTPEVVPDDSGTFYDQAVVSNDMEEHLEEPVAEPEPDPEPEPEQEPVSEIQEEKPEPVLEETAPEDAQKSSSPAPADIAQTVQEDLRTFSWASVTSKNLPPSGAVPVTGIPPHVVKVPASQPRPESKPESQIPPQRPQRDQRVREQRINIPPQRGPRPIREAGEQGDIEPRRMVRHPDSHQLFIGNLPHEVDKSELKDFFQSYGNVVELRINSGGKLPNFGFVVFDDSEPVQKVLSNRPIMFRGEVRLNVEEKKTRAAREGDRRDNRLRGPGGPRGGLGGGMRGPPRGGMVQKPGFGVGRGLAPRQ
SW480 colon carcinoma cells lysate proteins (Homo sapiens, UniProt P30153), sequence (P30153 whole entry): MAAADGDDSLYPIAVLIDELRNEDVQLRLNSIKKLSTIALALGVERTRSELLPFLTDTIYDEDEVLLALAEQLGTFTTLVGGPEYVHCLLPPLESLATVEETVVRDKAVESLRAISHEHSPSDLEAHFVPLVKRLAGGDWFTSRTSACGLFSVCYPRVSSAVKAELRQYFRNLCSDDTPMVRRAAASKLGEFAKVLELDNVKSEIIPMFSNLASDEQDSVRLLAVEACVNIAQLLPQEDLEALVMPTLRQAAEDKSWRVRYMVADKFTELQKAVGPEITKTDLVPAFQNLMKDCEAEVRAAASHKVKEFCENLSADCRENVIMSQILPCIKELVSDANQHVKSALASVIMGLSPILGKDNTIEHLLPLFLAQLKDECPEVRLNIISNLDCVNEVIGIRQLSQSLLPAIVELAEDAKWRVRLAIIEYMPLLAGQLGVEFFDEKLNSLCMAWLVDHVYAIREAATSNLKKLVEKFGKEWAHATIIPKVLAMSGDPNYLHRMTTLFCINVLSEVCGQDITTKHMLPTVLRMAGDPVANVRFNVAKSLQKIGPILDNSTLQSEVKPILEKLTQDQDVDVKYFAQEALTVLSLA
SW480 colon carcinoma cells lysate proteins (Homo sapiens, UniProt P27695), sequence (P27695 whole entry): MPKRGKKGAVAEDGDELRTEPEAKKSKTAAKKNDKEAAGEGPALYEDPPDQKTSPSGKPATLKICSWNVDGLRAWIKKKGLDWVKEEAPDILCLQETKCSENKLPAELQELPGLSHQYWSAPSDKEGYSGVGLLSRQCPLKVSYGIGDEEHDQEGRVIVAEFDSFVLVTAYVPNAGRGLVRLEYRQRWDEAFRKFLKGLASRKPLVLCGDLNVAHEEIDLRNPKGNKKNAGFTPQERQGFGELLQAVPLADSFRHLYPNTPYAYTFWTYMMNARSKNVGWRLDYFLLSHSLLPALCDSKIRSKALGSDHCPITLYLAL
SW480 colon carcinoma cells lysate proteins (Homo sapiens, UniProt O00571), sequence (O00571 whole entry): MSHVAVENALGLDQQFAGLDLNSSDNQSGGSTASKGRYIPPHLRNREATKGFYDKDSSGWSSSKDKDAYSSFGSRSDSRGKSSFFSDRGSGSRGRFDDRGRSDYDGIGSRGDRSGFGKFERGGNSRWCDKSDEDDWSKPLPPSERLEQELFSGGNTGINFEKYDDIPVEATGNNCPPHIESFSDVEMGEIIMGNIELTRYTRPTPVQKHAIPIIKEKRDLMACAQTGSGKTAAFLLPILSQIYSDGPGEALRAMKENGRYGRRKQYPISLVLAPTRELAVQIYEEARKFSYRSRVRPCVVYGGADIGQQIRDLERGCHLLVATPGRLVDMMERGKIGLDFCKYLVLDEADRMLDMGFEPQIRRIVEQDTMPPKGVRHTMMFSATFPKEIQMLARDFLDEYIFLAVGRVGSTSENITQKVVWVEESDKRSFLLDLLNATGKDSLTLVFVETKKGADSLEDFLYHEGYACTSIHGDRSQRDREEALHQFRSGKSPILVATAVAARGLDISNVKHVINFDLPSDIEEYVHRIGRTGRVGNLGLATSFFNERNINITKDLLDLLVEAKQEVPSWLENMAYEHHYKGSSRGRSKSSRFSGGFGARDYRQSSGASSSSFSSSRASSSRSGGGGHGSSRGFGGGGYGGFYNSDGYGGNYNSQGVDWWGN

C[C@H](Oc1cc(-c2cnn(C3CCNCC3)c2)cnc1N)c1c(Cl)ccc(F)c1Cl [(5)-crizotinib]
AvgP [1]: 0.7764
SC.Exp. 1-1 [1]: 2
SC.Exp. 1-2 [1]: 2
SC.Exp. 2-1 [1]: 1
SC.Exp. 2-2 [1]: 2
Sum (SC.Exp.) [1]: 7
AvgP [2]: 0
SC.Exp. 1-1 [2]: 4
SC.Exp. 1-2 [2]: 6
SC.Exp. 2-1 [2]: 7
SC.Exp. 2-2 [2]: 7
SC.Exp. Sum [2]: 24
AvgP [3]: 0.4042
SC.Exp. 1-1 [3]: 3
SC.Exp. 1-2 [3]: 3
SC.Exp. 2-1 [3]: 0
SC.Exp. 2-2 [3]: 0
Sum (SC.Exp.) [3]: 6
AvgP [4]: 0
SC.Exp. 1-1 [4]: 1
SC.Exp. 1-2 [4]: 1
SC.Exp. 2-1 [4]: 0
SC.Exp. 2-2 [4]: 0
SC.Exp. Sum [4]: 2
AvgP [5]: 0
SC.Exp. 1-1 [5]: 2
SC.Exp. 1-2 [5]: 2
SC.Exp. 2-1 [5]: 3
SC.Exp. 2-2 [5]: 2
SC.Exp. Sum [5]: 9
AvgP [6]: 0.4615
SC.Exp. 1-1 [6]: 5
SC.Exp. 1-2 [6]: 6
SC.Exp. 2-1 [6]: 0
SC.Exp. 2-2 [6]: 0
Sum (SC.Exp.) [6]: 11
AvgP [7]: 0.206
SC.Exp. 1-1 [7]: 5
SC.Exp. 1-2 [7]: 5
SC.Exp. 2-1 [7]: 2
SC.Exp. 2-2 [7]: 4
Sum (SC.Exp.) [7]: 16
AvgP [8]: 0.3986
SC.Exp. 1-1 [8]: 4
SC.Exp. 1-2 [8]: 5
SC.Exp. 2-1 [8]: 0
SC.Exp. 2-2 [8]: 0
Sum (SC.Exp.) [8]: 9
AvgP [9]: 0.1792
SC.Exp. 1-1 [9]: 2
SC.Exp. 1-2 [9]: 0
SC.Exp. 2-1 [9]: 0
SC.Exp. 2-2 [9]: 0
Sum (SC.Exp.) [9]: 2
AvgP [10]: 0.1992
SC.Exp. 1-1 [10]: 8
SC.Exp. 1-2 [10]: 8
SC.Exp. 2-1 [10]: 0
SC.Exp. 2-2 [10]: 0
Sum (SC.Exp.) [10]: 16
AvgP [11]: 0
SC.Exp. 1-1 [11]: 1
SC.Exp. 1-2 [11]: 0
SC.Exp. 2-1 [11]: 0
SC.Exp. 2-2 [11]: 0
SC.Exp. Sum [11]: 1
